Values quoted from earlier work, collected in publication PMC9992518, “Structural basis of peptide recognition and activation of endothelin receptors” (Nature Communications, 2023).

Assays:
ETAR [1] = tested on: ETAR
ETBR [2] = tested on: ETBR; set-up: method as in earlier work; conditions: ETBR activated by ET-3
ETBR [3] = molecular target: ETBR
From the text: (§1) S6c bears an identical substitution from K9 to E9 compared with s6b (Fig. 1a). The charge of the ninth residue has been thought to determine the ETR selectivity of s6c over s6b[33], supporting the importa ...

ETAR [4] = molecular target: ETAR; remark: listed apart in the source
From the text: as §1

LgBiT = conditions: NanoBiT complementary peptide
From the text: NanoLuc Binary Technology (NanoBiT, Promega) is originally a structurally complementary reporter system to evaluate protein-protein interaction in cells. NanoBiT is composed of a large subunit (LgBiT, 18 kDa) and an 11 amino acid complementary peptide (SmBiT, peptide, […]) with low affinity for LgBiT, both of which are connected to two interacting target proteins of interest, respectively. When the two proteins interact, the two subunits assemble into an active enzyme and generate a bright luminescent signal in the presence of a substrate. To improve the homogeneity and stability o ...

Substance: ET-3: endothelin, 21-amino-acid peptide hormone
- fold weaker affinity for ETAR (ETAR [1]; ETAR, relative to ET-1 and ET-2): 100 fold
- effect on ET-1-mediated effects upon ETBR activation (in words) (ETBR [2]): can inhibit the ET-1-mediated effects

Substance: Sarafotoxin s6c
- ETBR selectivity (in words) (ETAR [1]; from reduced affinity for ETAR compared with s6b): substantial ETBR selectivity

Substance: Succinyl-[Glu^9, Ala^11,15]-ET-1(8-21) [IRL1620]
- Ki (ETBR [3]): 0.016 nM
- Ki (ETAR [4]): 1900 nM

Substance: VSGWRLFKKIS [HiBiT]
- affinity for LgBiT (in words) (LgBiT): high affinity

Substance: VTGYRLFEEIL [SmBiT]
- affinity for LgBiT (in words) (LgBiT): low affinity
